# Test results published in patent US8232406B2, “c-MET protein kinase inhibitors” (Vertex Pharmaceuticals Incorporated, priority 2006, dated 2012).
# Biological target: c-MET (Homo sapiens, UniProt P08581)
# Assay: Ki determination for the inhibition of c-MET (standard radiometric 33P-ATP kinase assay, polyE4Y substrate)
# Assay type: biochemical
# Conditions: 1.0 nM c-Met, 35 μM ATP, 0.5 mg/mL polyE4Y, 20 min; competitive tight-binding fit
# Procedure, shortened: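 Ki obtained by fitting data to competitive tight-binding inhibition kinetics. c-Met at 1.0 nM phosphorylated polyE4Y (0.5 mg/mL) with 35 μM 33P-ATP for 20 min in pH 7.5 HEPES buffer with MgCl2, NaCl, BSA and DTT. Incorporated label measured by scintillation after TCA precipitation on filters.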
# Chain of c-MET (P08581 25-1390): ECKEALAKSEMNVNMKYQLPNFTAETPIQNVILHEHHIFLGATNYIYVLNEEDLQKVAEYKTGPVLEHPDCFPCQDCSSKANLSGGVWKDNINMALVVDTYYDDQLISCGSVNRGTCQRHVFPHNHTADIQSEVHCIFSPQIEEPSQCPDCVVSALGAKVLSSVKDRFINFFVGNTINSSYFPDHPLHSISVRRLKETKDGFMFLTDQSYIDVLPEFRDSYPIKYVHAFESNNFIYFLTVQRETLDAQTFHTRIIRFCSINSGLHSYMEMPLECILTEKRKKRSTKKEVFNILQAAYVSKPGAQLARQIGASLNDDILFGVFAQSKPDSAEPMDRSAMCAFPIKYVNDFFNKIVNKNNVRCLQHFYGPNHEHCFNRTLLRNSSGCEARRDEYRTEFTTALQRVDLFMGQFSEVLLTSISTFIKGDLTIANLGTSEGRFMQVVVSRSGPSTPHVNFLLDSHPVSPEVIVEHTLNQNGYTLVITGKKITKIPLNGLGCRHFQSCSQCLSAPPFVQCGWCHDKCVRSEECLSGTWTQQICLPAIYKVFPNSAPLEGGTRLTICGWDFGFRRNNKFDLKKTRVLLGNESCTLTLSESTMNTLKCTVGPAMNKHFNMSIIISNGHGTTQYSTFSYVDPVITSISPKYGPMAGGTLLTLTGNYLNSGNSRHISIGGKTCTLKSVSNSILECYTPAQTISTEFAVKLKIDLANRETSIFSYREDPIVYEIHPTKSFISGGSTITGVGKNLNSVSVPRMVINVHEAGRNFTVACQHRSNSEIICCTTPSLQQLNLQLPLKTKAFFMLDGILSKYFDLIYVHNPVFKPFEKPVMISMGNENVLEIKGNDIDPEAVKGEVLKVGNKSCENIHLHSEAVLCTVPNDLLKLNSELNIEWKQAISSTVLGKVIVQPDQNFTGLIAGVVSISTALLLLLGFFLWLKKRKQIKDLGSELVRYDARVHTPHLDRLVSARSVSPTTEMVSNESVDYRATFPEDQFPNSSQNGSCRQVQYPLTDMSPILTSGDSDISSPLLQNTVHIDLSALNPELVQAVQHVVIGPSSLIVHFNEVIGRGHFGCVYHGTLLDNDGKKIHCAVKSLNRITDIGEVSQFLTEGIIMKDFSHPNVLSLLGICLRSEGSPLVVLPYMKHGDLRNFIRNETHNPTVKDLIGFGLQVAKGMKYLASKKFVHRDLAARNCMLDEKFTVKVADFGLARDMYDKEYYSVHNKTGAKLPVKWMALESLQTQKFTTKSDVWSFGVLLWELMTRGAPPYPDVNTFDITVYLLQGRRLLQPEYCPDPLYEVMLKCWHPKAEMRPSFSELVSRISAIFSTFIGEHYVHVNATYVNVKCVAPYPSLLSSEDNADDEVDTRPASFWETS
row,Compound,Ki [nM]
1,COc1c(F)cccc1-n1nnnc1-c1cc(-c2cnn(C3CCNCC3)c2)cnc1N [I-A-638],100 to 1000
2,Nc1ncc(-c2cnn([C@@H]3CCOC3)c2)cc1-c1nnnn1-c1cccc(-c2cnn([C@@H]3CCOC3)c2)c1F [I-A-421],100 to 1000
3,CN[C@@H](C)c1ccc(-c2cnc(N)c(-c3nnnn3-c3cccc(F)c3F)c2)cc1 [I-A-351],≤ 100
4,Nc1ncc(-c2cnn(C3CCNCC3)c2)cc1-c1nnnn1-c1cccc(F)c1F [I-A-370],≤ 100
5,Cn1cc(-c2cnc(N)c(-c3nnnn3-c3cccc(F)c3F)c2)cn1 [I-A-249],≤ 100
6,CN(C)Cc1ccc(-c2cnc(N)c(-c3nnnn3-c3c(F)cccc3Cl)c2)cc1 [I-A-623],≤ 100
7,Nc1ncc(-c2ccc(CN3CCCC3)c(F)c2)cc1-c1nnnn1-c1cccc(F)c1F [I-A-213],≤ 100
8,CC(=O)c1ccc(-c2cnc(N)c(-c3nnnn3-c3cccc(F)c3F)c2)s1 [I-A-179],100 to 1000
9,Nc1ncc(-c2ccco2)cc1-c1nnnn1-c1cccc(F)c1F [I-A-488],100 to 1000
10,Nc1ncc(C2=CCCNCC2)cc1-c1nnnn1-c1cccc(F)c1F [I-A-646],100 to 1000
11,Nc1ncc(-c2cnn(C3CCN(CCF)CC3)c2)cc1-c1nncn1-c1cccc(Cl)c1F [I-A-459],≤ 100
12,Nc1ccc(-c2cnc(N)c(-c3nnnn3-c3cccc(F)c3F)c2)cc1F [I-A-286],≤ 100
13,CN1CCN(c2ccc(-c3cnc(N)c(-c4nncn4-c4cccc(F)c4F)n3)cc2)CC1 [I-A-7],≤ 100
14,C[C@@H](N)c1ccc(-c2cnc(N)c(-c3nnnn3-c3cccc(F)c3F)c2)cc1 [I-A-153],≤ 100
15,Nc1ncc(-c2cnn(C3CCNCC3)c2)cc1-c1nnnn1-c1cc(F)cc(F)c1 [I-A-627],100 to 1000
16,Nc1ncc(-c2ccc(CN3CCCCC3)cc2)cc1-c1nnnn1-c1cccc(F)c1F [I-A-134],≤ 100
17,Nc1ncc(-c2ccc(CN3CCCC3)s2)cc1-c1nnnn1-c1cccc(F)c1F [I-A-186],≤ 100
18,Cn1cc(-c2cccc(Cl)c2Cl)c(-c2cc(-c3ccc(N4CCCC4)nc3)cnc2N)n1 [I-B-20],100 to 1000
19,CC(=O)N1CCN(Cc2ccc(-c3cnc(N)c(-c4nc5cnccc5n4-c4cccc(F)c4F)c3)cc2)CC1 [I-D-6],≤ 100
20,Cc1c(Cl)cccc1-n1nnnc1-c1cc(-c2cnn(C3CCNCC3)c2)cnc1N [I-A-624],≤ 100

row,Compound,Ki [nM]
1,CCNC(=O)Nc1nc2cc(-c3cnc(N)c(-c4nnnn4-c4cccc(Cl)c4Cl)c3)c(F)cc2[nH]1 [I-A-93],100 to 1000
2,CN(C)Cc1ccc(-c2cnc(N)c(-c3nnnn3-c3cccc(Cl)c3F)c2)cc1 [I-A-360],≤ 100
3,Nc1ncc(-c2cccnc2)nc1-c1nncn1-c1cccc(F)c1F [I-A-2],100 to 1000
4,Nc1ncc(-c2cccc(O)c2)cc1-c1nnnn1-c1cccc(F)c1F [I-A-247],≤ 100
5,Nc1ncc(-c2cnn(C3CCNCC3)c2)cc1-c1nnnn1-c1cccc(Cl)c1Cl [I-A-371],≤ 100
6,CC(=O)Nc1ccc(-c2cnc(N)c(-c3nnnn3-c3c(F)cccc3F)c2)cc1 [I-A-607],100 to 1000
7,COc1ccc(-c2cnc(N)c(-c3nnnn3-c3cccc(F)c3F)c2)cc1F [I-A-290],≤ 100
8,Nc1ncc(-c2ccccc2O)cc1-c1nncn1-c1cccc(Cl)c1Cl [I-A-75],100 to 1000
9,CC(=O)Nc1cccc(-c2cnc(N)c(-c3nnnn3-c3cccc(Cl)c3)c2)c1 [I-A-359],100 to 1000
10,CN(C)Cc1ccc(-c2cnc(N)c(-c3nnnn3-c3c(F)ccc(F)c3Cl)c2)cc1 [I-A-630],≤ 100
11,Nc1ncc(-c2ccc(CN3CCCC3)cc2)cc1-c1nccn1-c1cccc(Cl)c1Cl [I-A-393],≤ 100
12,CC1(C)CN(c2ccc(-c3cnc(N)c(-c4nnnn4-c4cccc(F)c4F)c3)cc2)C1=O [I-A-357],100 to 1000
13,"Nc1ncc(-c2cn(C3CCNCC3)nn2)cc1-c1nnnn1-c1cccc(F)c1F [I-A-483, 3-(1-(2,3-Difluorophenyl)-1H-tetrazol-5-yl)-5-(1-(piperidin-4-yl)-1H-1,2,3-triazol-4-yl)pyridin-2-amine]",≤ 100
14,Nc1ncc(-c2ccc(CN3CCCC3)cc2)cc1-c1nnnn1-c1cccc(F)c1F [I-A-67],≤ 100
15,Nc1ncc(-c2cnn([C@@H]3CCCNC3)c2)cc1-c1nnnn1-c1cccc(Cl)c1Cl [I-A-418],≤ 100
16,Nc1ncc(-c2ccc(CN3CC[C@H](O)C3)cc2)cc1-c1nnnn1-c1cccc(Cl)c1Cl [I-A-120],≤ 100
17,Nc1ncc(-c2ccc(C3CCNCC3)s2)cc1-c1nnnn1-c1cccc(Cl)c1Cl [I-A-416],≤ 100
18,Nc1ncc(-c2cc(Cl)c(N)c(Cl)c2)cc1-c1nnnn1-c1cccc(F)c1F [I-A-287],≤ 100
19,Nc1ncc(-c2ccc(CO)cc2)cc1-c1nnnn1-c1cccc(F)c1F [I-A-232],≤ 100

# Results, then the compound that gave them:
row,Ki [nM],Compound
1,100 to 1000,CC(=O)Nc1cccc(-c2cnc(N)c(-c3nnnn3-c3cc(F)ccc3F)c2)c1 [I-A-567]
2,≤ 100,COCCC(=O)N1CC=C(c2cnc(N)c(-c3nnnn3-c3cccc(F)c3F)c2)CC1 [I-A-514]
3,100 to 1000,Cc1ccc(Cl)cc1-n1nnnc1-c1cc(-c2cnn(C3CCNCC3)c2)cnc1N [I-A-632]
4,≤ 100,CN(C)Cc1cccc(-c2cnc(N)c(-c3nnnn3-c3cccc(Cl)c3Cl)c2)c1 [I-A-123]
5,100 to 1000,CC(=O)Nc1cccc(-c2cnc(N)c(-c3nnnn3-c3c(F)ccc(F)c3N)c2)c1 [I-A-383]
6,≤ 100,Nc1ncc(-c2cnn([C@H]3CCOC3)c2)cc1-c1nnnn1-c1cccc(F)c1F [I-A-425]
7,≤ 100,Nc1ncc(-c2cccnc2)cc1-c1nccn1-c1cccc(Cl)c1Cl [I-A-65]
8,100 to 1000,CNC(=O)Cn1cc(-c2cnc(N)c(-c3nnnn3-c3cccc(F)c3F)c2)cn1 [I-A-369]
9,≤ 100,CC1CN(Cc2ccc(-c3cnc(N)c(-c4nnnn4-c4cccc(Cl)c4Cl)c3)cc2)CCN1 (stereo not shown) [I-A-106]
10,≤ 100,Nc1ncc(-c2cnn([C@@H]3CCOC3)c2)cc1-c1nnnn1-c1cccc(F)c1F [I-A-419]
11,100 to 1000,COc1ccc(F)cc1-n1nnnc1-c1cc(-c2ccc(NC(C)=O)cc2)cnc1N [I-A-585]
12,100 to 1000,Nc1ncc(-c2ccncc2)nc1-c1nncn1-c1cccc(F)c1F [I-A-3]
13,≤ 100,CC(=O)N1CCc2cc(-c3cnc(N)c(-c4nnnn4-c4cccc(F)c4F)c3)ccc21 [I-A-182]
14,≤ 100,"CN1CCN(Cc2ccc(-c3cnc(N)c(-c4nnnn4-c4cccc(F)c4F)c3)cc2)CC1 [I-A-62, 3-(1-(2,3-Difluorophenyl)-1H-tetrazol-5-yl)-5-(4-((4-methylpiperazin-1-yl)methyl)phenyl)pyridin-2-amine]"
15,100 to 1000,CN1CCN(c2ccc(-c3cnc(N)c(-c4nnc(O)n4-c4cccc(F)c4F)n3)cc2)CC1 [I-A-17]
16,100 to 1000,Nc1ncc(-c2cnn(C3CCNCC3)c2)cc1-c1nnnn1-c1cc(F)ccc1F [I-A-625]
17,≤ 100,CC(N)c1ccc(-c2cnc(N)c(-c3nnnn3-c3cccc(F)c3F)c2)cn1 (stereo not shown) [I-A-129]
18,≤ 100,CC(C)OC(=O)N1CC=C(c2cnc(N)c(-c3nnnn3-c3cccc(F)c3F)c2)CC1 [I-A-508]
19,≤ 100,CC(=O)Nc1ccc(-c2cnc(N)c(-c3nnnn3-c3cccc(Cl)c3Cl)c2)cc1 [I-A-81]
20,≤ 100,Nc1ncc(C2=CCN(C(=O)OC3CCOC3)CC2)cc1-c1nnnn1-c1cccc(F)c1F (stereo not shown) [I-A-520]
21,≤ 100,CN1CCC(n2cc(-c3cnc(N)c(-c4nnnn4-c4cccc(F)c4F)c3)cn2)CC1 [I-A-434]
22,100 to 1000,Nc1ncc(C2=CCN(C3CCNCC3)CC2)cc1-c1nnnn1-c1cccc(F)c1F [I-A-424]

row,Ki [nM],Compound
1,≤ 100,CC(C)(C)NC(=O)Nc1ccc(-c2cnc(N)c(-c3nnnn3-c3cccc(F)c3F)c2)cc1 [I-A-332]
2,≤ 100,Nc1ncc(-c2ccc3c(c2)OCCO3)cc1-c1nnnn1-c1cccc(F)c1F [I-A-235]
3,100 to 1000,Nc1ncc(-c2nc3c(s2)CNCC3)cc1-c1nnnn1-c1cccc(F)c1F [I-A-465]
4,≤ 100,COCCOC(=O)Nc1ccc(-c2cnc(N)c(-c3nnnn3-c3cccc(F)c3F)c2)cc1 [I-A-277]
5,100 to 1000,Nc1ncc(-c2ccc(NC(=O)c3ccco3)cc2)cc1-c1nnnn1-c1cccc(F)c1F [I-A-162]
6,100 to 1000,CN(C)Cc1ccc(-c2cnc(N)c(-c3nnnn3-c3cc(F)cc(F)c3)c2)cc1 [I-A-591]
7,100 to 1000,Nc1ncc(-c2cnn(C3CCNCC3)c2)cc1-c1nnnn1-c1cc(Cl)ccc1Cl [I-A-636]
8,100 to 1000,CC(C)C(=O)Nc1cccc(-c2cnc(N)c(-c3nnnn3-c3cccc(F)c3F)c2)c1 [I-A-260]
9,≤ 100,Nc1ncc(-c2cnn(C3CNC3)c2)cc1-c1nnnn1-c1cccc(Cl)c1Cl [I-A-427]
10,100 to 1000,CC(=O)Nc1ccc(-c2cnc(N)c(-c3nnnn3-c3cc(F)cc(F)c3Cl)c2)cc1 [I-A-583]
11,≤ 100,CCNC(=O)Nc1ccc(-c2cnc(N)c(-c3nnnn3-c3cccc(F)c3F)c2)cc1 [I-A-281]
12,100 to 1000,Cc1nnc(-c2cc(-c3cnn(C4CCNCC4)c3)cnc2N)n1-c1cccc(Cl)c1F [I-A-454]
13,≤ 100,Nc1ncc(C2=CCN(C(=O)CC3CCOCC3)CC2)cc1-c1nnnn1-c1cccc(F)c1F [I-A-516]
14,≤ 100,NC(=O)c1ccc(-c2cnc(N)c(-c3nnnn3-c3cccc(F)c3F)c2)cc1 [I-A-245]
15,≤ 100,Cc1c(Cl)cccc1-n1nnnc1-c1cc(-c2ccc(CN3CCCC3)cc2)cnc1N [I-A-599]
16,100 to 1000,CC(=O)Nc1cccc(-c2cnc(N)c(-c3nnnn3-c3c(Cl)cccc3Cl)c2)c1 [I-A-611]
17,100 to 1000,Nc1ncc(-c2ccn[nH]2)cc1-c1nnnn1-c1cccc(F)c1F [I-A-248]
18,100 to 1000,Nc1ncc(-c2cc(F)ccc2F)cc1-c1nnnn1-c1cccc(F)c1F [I-A-294]
19,≤ 100,CN(C)Cc1ccc(-c2cnc(N)c(-c3nnnn3-c3cccc(F)c3F)n2)cc1 [I-A-48]
20,100 to 1000,Nc1ncc(-c2cccnc2)cc1-c1nnnn1-c1cc(Cl)ccc1F [I-A-554]
21,≤ 100,CC(=O)N1CCCC1c1ccc(-c2cnc(N)c(-c3nnnn3-c3cccc(F)c3F)c2)cc1 (stereo not shown) [I-A-335]
